Test results reported in patent US20040071656A1, “Modulation of heat-shock-protein-based immunotherapies” (priority 2001, published 2004).

How the values were obtained:
[1] = biological target: T1, human CD40 (Homo sapiens, UniProt P25942); experiment: Binding to Cos-7 cells transiently transfected with human CD40 cDNA, fluorescence microscopy; assay type: cell-based; settings: 250 nM biotinylated protein, 30 min at 0° C.
T1 construct: CD40 full-length cDNA was cloned by PCR; expressed in transfected cells
Procedure: (§1) Cell culture and fluorescence microscopy. The murine macrophage cell line ANA1 was kindly provided by H. Wagner (Munich, Germany). ANA-1 cells were cultured in VLE-RPMI 1640 (Biochrom), supplemented with 10% FCS, 2 mM L-glutamine and antibiotics. For fluorescence microscopy, ANA1 cells were either stimulated with LPS (20 μg/ml, Sigma, Germany), or kept in an LPS-free medium (mock treatment) for 7 h. After stimulation, cells were harvested and incubated with 100 nM biotinylated Hsp70, biotinylated GST, or Hsp70/peptide C-biotin complex for 30 min at 0° C. in VLE-RPMI 1640. After incubation cells were processed for staining with streptavidin-TRITC (Sigma, Germany), fixed with paraformaldehyde and analyzed by fluorescence microscopy (Axiovert 35, Zeiss) as described (Sondermann et al., 2000). […] Twenty-four h post-transfection cells were incubated with 250 nM biotinylated Hsp70, biotinylated GST or Hsp70/peptide C-biotin complex for 30 min at 0° C. in DMEM, fixed, stained with streptavidin-TRITC (Sigma, Germany), and analyzed by fluorescence microscopy as described (Sondermann et al., 2000, idem). […] Stably transfected cell lines were analyzed by immunoblotting for CD40 expression using an anti-CD40 antibody (CSA180, Stressgen). […]
Mock-treated and LPS-stimulated ANA-1 cells were analyzed for their expression of CD40. […]

[2] = system: ANA1 cells; experiment: Binding of biotinylated Hsp70 / Hsp70-peptide C-biotin to ANA1 macrophage cells, fluorescence microscopy; assay type: cell-based, murine; settings: 100 nM biotinylated protein
Procedure: as §1
Details for FIG. 1. […] After 30 min at 4° C. cells were washed, incubated with TRITC-labeled streptavidin, washed again, and processed for fluorescence microscopy. […]

T1 sequence (P25942 21-277): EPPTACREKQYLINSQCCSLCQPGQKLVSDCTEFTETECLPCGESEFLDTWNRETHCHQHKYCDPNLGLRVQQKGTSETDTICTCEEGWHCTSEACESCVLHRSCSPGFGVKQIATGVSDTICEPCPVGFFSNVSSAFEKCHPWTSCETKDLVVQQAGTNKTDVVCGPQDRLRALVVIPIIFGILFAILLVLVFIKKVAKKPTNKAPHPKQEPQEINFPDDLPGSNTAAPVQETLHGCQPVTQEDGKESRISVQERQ

For “Hsp70: Recombinant human heat shock protein 70, expressed and purified as His-tagged protein”, the “binding to CD40-transfected Cos-7 cells” value [1] was “bound to the surface of transfected cells but not to untransfected cells”, the “binding to LPS-stimulated ANA-1 cells” value ([2]; LPS 20 μg/ml 7 h) was “significant increase in binding” and the “binding to unstimulated ANA-1 cells” value ([2]; mock treated cells, 30 min, streptavidin-TRITC) was “weak but clearly detectable binding”.
